Counter-ions that a name gives are not always drawn. Like-named read-outs stand apart in the source and are kept apart here.
How the values were obtained:
HIV = assay type: cell-based; conditions: for At least 1x log reduction seen in p24 assay?: Table 19b, yes/no
SARS-CoV E protein = SARS-CoV E protein (Severe acute respiratory syndrome coronavirus, UniProt P59637); assay type: cell-based
[1] = system: porcine respiratory coronavirus (PRCV) strain AR310; experiment: PRCV plaque assay in ST cells; assay type: cell-based; conditions: Alphacoronavirus 1; PRCV plaques in ST cells
bovine coronavirus (BCV) = experiment: BCV plaque assay in MDBK cells; assay type: cell-based; conditions: Betacoronavirus 1; BCV plaques in MDBK cells
Vpu protein = Vpu protein (Human immunodeficiency virus type 1 group M subtype B, UniProt P05919); conditions: for Vpu Inhibition (score/# of times tested): halo of growth score between zero and six, XL1-blue E. coli with pPL-Vpu, no adenine, 37° C.
Vpu protein, sequence (P05919 whole entry): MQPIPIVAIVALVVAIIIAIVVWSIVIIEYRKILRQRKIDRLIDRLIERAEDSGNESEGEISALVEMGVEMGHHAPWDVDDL

MHV (strain MHV-A59) [2] = conditions: L929 cells
229E-CoV E-protein = 229E-CoV E-protein (Human coronavirus 229E, UniProt P19741); experiment: Bacterial bio-assay for 229E-CoV E-protein; conditions: halo of growth score; E. coli expressing E protein at 37° C.
229E-CoV E-protein, sequence (P19741 whole entry): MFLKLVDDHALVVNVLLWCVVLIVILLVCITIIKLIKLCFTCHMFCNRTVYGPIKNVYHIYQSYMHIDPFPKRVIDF

[3] = target: SARS E protein ion channel (Severe acute respiratory syndrome coronavirus, UniProt P59637); assay type: biochemical, SARS-CoV
SARS E protein ion channel, sequence (P59637 whole entry, looked up): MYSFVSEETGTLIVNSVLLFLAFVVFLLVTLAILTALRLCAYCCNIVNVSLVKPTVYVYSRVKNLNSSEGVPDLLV

MHV (strain MHV-A59) [4] = experiment: microbe, parasite or virus in culture; conditions: Murine coronavirus, L929, read-out: Percent reduction in Plaque number/# experiments
human coronavirus OC43 = experiment: microbe, parasite or virus in culture; assay type: cell-based; conditions: Betacoronavirus 1, OC43, MRC5, 120 h, MRC-5 cells, 5 days post infection
[5] = system: SARS-CoV (Hong Kong strain); assay type: cell-based, SARS coronavirus; conditions: for Titre (% control): 48 hours; for Average TCID50 (×10^6): 48 hours post infection
Dengue 1 strain Hawaii = experiment: Dengue cytoproliferation assay in LLC-MK2 cells (Alamar Blue); assay type: cell-based, Dengue virus; conditions: 7 days
[6] = Table 19a, rank among 12 compounds, 1 = highest score

SARS-CoV E protein, sequence (P59637 whole entry, looked up): as above

Structure (SMILES)	At least 1x log reduction seen in p24 assay? (HIV)	SARS E protein Inhibition (score/# of times tested) (SARS-CoV E protein)	EC50 [1] [µM]	EC50 (bovine coronavirus (BCV)) [µM]	Bacterial assay rank order (Vpu protein; [6])	Bacterial assay rank order (Vpu protein; Table 19b)	Vpu Bacterial score (Vpu protein; Table 19b)	Vpu Inhibition (score/# of times tested) (Vpu protein)	Percent reduction in Plaque number/# experiments (MHV (strain MHV-A59) [2]; 1 uM)	Percent reduction in Plaque number/# experiments (MHV (strain MHV-A59) [2]; 10 uM)	Percent reduction in Plaque number/# experiments (MHV (strain MHV-A59) [2]; 20 uM)	229E E protein Inhibition (score) (229E-CoV E-protein)	inhibition at 2.5 µM (human coronavirus OC43) [%]	other results
N=C(N)NC(=O)Cc1ccc2ccccc2c1 [2-(2-napthyl)acetoylguanidine]	no	0.71/1 score	120	99	11	11	1.2	1.19/2 score	23/1%	20/2%	52/1%	0.1		
N/C(=N\C(=O)c1nc(Cl)c(N)nc1N)NCc1ccc(Cl)cc1Cl [2′4 DichloroBenzamil HCl]		3.00/2 score						1.7/2 score	0/3%	0/3%	12/2%			% Reduction of average current by 100 μM [3]: 78 ± 0%
CCCCC/C=C/c1cccc(/C=C/C(=O)NC(=N)N)c1 [3-(trans-hept-1-en-1-yl)cinnamoylguanidine]		1.71/1 score						0.81/2 score						inhibition at 1 µM (MHV (strain MHV-A59) [4]): -6%; inhibition at 10 µM (MHV (strain MHV-A59) [4]): 23%
N=C(N)NC(=O)/C=C/c1cccc(C(F)(F)F)c1 [3-(trifluoromethyl)cinnamoylguanidine]	yes	2.67/1 score		3	2	2	3.7	3.7/2 score	40/1%	83/1%	98/1%	2.3	84	Percent of Positive Control (HIV; Drug Conc. 0.625 μM): 38%; Percent of Positive Control (HIV; Drug Conc. 1.25 μM): 27%; Percent of Positive Control (HIV; Drug Conc. 2.5 μM): 25%; Percent of Positive Control (HIV; Drug Conc. 5 μM): 8%; Percent of Positive Control (HIV; Drug Conc. 10 μM): 11%
Cc1cccc(/C=C/C(=O)NC(=N)N)c1 [3-methylcinnamoylguanidine]	yes	1.00/1 score	1.43		3	3	3.4	3.4/2 score	39/1%	88/1%	90/1%	0.5	100	
N=C(N)NC(=O)c1ccc(-c2ccccc2)cc1 [4-phenylbenzoylguanidine]	no	0.63/2 score		190	7	7	2.8	2.75/5 score	5/1%	24/1%	32/1%	2.3		Percent of Positive Control (HIV; Drug Conc. 0.625 μM): 10%; Percent of Positive Control (HIV; Drug Conc. 1.25 μM): 216%; Percent of Positive Control (HIV; Drug Conc. 2.5 μM): 9%; Percent of Positive Control (HIV; Drug Conc. 5 μM): 4%; Percent of Positive Control (HIV; Drug Conc. 10 μM): 26%
COc1ccc2cc(C(=O)NC(=N)N)ccc2c1 [6-methoxy-2-naphthoylguanidine]	yes	3.13/3 score	0.04	9	5.5	5.5	2.9	2.9/4 score	34/3%	56/3%	88/3%	1.4	47	% Reduction of average current by 100 μM [3]: 92 ± 16%; Titre (% control) ([5]; Compound Concentration 2 uM): 118 % control; Average TCID50 (×10^6) ([5]; Compound Concentration 2 uM): 6.35 ×10^6; Titre (% control) ([5]; Compound Concentration 10 uM): 111 % control; Average TCID50 (×10^6) ([5]; Compound Concentration 10 uM): 5.95 ×10^6
N=C(N)NC(=O)/C=C/c1ccccc1Br [(2-Bromocinnamoyl)guanidine]		2.47/3 score						3.7/2 score	52/3%	89/3%	91/2%	0.9		% Reduction of average current by 100 μM [3]: 88 ± 6%
N=C(N)NC(=O)/C=C/c1ccccc1Cl [(2-Chlorocinnamoyl)guanidine]		3.1/3 score						4.0/4 score	53/3%	88/3%	95/2%	0.1	96	Antiviral Percent of Negative Control (Dengue 1 strain Hawaii; Drug Conc. 0.625 μM): 64.3%; Antiviral Percent of Negative Control (Dengue 1 strain Hawaii; Drug Conc. 1.25 μM): 52.5%; Antiviral Percent of Negative Control (Dengue 1 strain Hawaii; Drug Conc. 2.5 μM): 22.7%; Antiviral Percent of Negative Control (Dengue 1 strain Hawaii; Drug Conc. 5 μM): 7.7%; Antiviral Percent of Negative Control (Dengue 1 strain Hawaii; Drug Conc. 10 μM): 8.4%
NC(N)=NC(=O)/C=C/c1ccc(Br)cc1 [(4-Bromocinnamoyl)guanidine]		1.69/2 score						2.5/4 score	52/3%	98/3%		2.0	29	Toxic (noted in place of plaque reduction) (MHV (strain MHV-A59) [2]; 20 uM): Toxic/2
NC(N)=NC(=O)/C=C/c1ccc(Cl)cc1 [(4-Chlorocinnamoyl)guanidine]		1.94/2 score						2.7/5 score	43/3%	88/2%	97/2%	1.4	36	
NC(N)=NC(=O)/C=C/C=C/c1ccccc1 [(5-Phenyl-penta-2,4-dienoyl)guanidine]	no	0.44/2 score		95	8	8	2.6	2.56/2 score	17/1%	24/1%	27/1%	1.8	9	
N=C(N)NC(=O)C1CC1c1ccccc1 (stereo not drawn) [(trans-2-Phenylcyclopropanecarbonyl)guanidine]	no	1.34/3 score	17.2	109	12	12	0.4	0.4/2 score	31/2%	64/2%	77/2%	0.8	71	
O=C(CCc1ccccc1)NC(=Nc1ccccc1)NC(=O)CCc1ccccc1 [N,N′-bis(3phenylpropanoyl)-N″-phenylguanidine]		1.33/3 score						2.25/3 score	1/3%	40/4%	67/3%	0.1		% Reduction of average current by 100 μM [3]: 88 ± 6%
N=C(NC(=O)CCc1ccccc1)Nc1ccccc1 [N-(3-phenylpropanoyl)-N′-phenylguanidine]	no	1.57/2 score	19	156	9	9	2.2	2.21/3 score	43/1%	65/1%	80/1%	0.1		

Source: patent US11192863B2, “Antiviral compounds and methods” (Biotron Limited, priority 2003, dated 2021)
